Values quoted from earlier work in patent US12290506B2, “Compositions and formulations for use of a PK inhibitor for the prevention, treatment, and improvement of skin diseases, conditions, and disorders” (DermBiont, Inc., priority 2022, dated 2025).

System: UV induced neo-melanogenesis
Conditions: topical application, guinea pig model

Substance: bisindolylmaleimide
- UV induced neo-melanogenesis: inhibit UV induced neo-melanogenesis
